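Briefly, cells in 96-well plates were exposed to five compound concentrations for 48 h, and endpoints were estimated by linear interpolation. Definition used: TGI = concentration required for complete inhibition of growth.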
Experiments:
Assay in all cases: NCI-60 cell line screen, 48 h
BT-549 breast = system: BT-549 breast
786-0 renal = system: 786-0 renal
MDA-MB-231 breast = system: MDA-MB-231 breast
SF-539 CNS = system: SF-539 CNS
IGROV1 ovarian = system: IGROV1 ovarian
SK-OV-3 ovarian = system: SK-OV-3 ovarian
HOP-62 NSCLC = system: HOP-62 NSCLC
KM12 colon = system: KM12 colon
ACHN renal = system: ACHN renal
OVCAR-3 ovarian = system: OVCAR-3 ovarian
OVCAR-5 ovarian = system: OVCAR-5 ovarian
MOLT-4 leukemia = system: MOLT-4 leukemia
NCI-H23 lung = system: NCI-H23 lung
DU-145 prostate = system: DU-145 prostate
K-562 leukemia = system: K-562 leukemia
T-47D breast = system: T-47D breast
NCI-H522 lung = system: NCI-H522 lung
NCI-H460 lung = system: NCI-H460 lung
CCRF-CEM leukemia = system: CCRF-CEM leukemia
CAKI-1 renal = system: CAKI-1 renal
NCI-H226 lung = system: NCI-H226 lung
HL-60(TB) leukemia = system: HL-60(TB) leukemia
SW-620 colon = system: SW-620 colon
SN12C renal = system: SN12C renal
MDA-MB-435 = system: MDA-MB-435
MALME-3M melanoma = system: MALME-3M melanoma
NCI/ADR-RES ovarian = system: NCI/ADR-RES ovarian
U251 CNS = system: U251 CNS
COLO 205 colon = system: COLO 205 colon
M14 melanoma = system: M14 melanoma
OVCAR-8 ovarian = system: OVCAR-8 ovarian
SK-MEL-5 melanoma = system: SK-MEL-5 melanoma
TK-10 renal = system: TK-10 renal
HT29 colon = system: HT29 colon
OVCAR-4 ovarian = system: OVCAR-4 ovarian
A549 NSCLC = system: A549 NSCLC
SF-295 CNS = system: SF-295 CNS
LOX IMVI melanoma = system: LOX IMVI melanoma
HCT-116 colon = system: HCT-116 colon
SNB-19 CNS = system: SNB-19 CNS
SK-MEL-2 melanoma = system: SK-MEL-2 melanoma
MDA-N = system: MDA-N
HCT-15 colon = system: HCT-15 colon
SF-268 CNS = system: SF-268 CNS
PC-3 prostate = system: PC-3 prostate
SK-MEL-28 melanoma = system: SK-MEL-28 melanoma
UACC-62 melanoma = system: UACC-62 melanoma
RXF 393 renal = system: RXF 393 renal
UACC-257 melanoma = system: UACC-257 melanoma
SNB-75 CNS = system: SNB-75 CNS
EKVX NSCLC = system: EKVX NSCLC
HOP-92 NSCLC = system: HOP-92 NSCLC
HCC-2998 colon = system: HCC-2998 colon
A498 renal = system: A498 renal
MCF7 breast = system: MCF7 breast
UO-31 renal = system: UO-31 renal
RPMI-8226 leukemia = system: RPMI-8226 leukemia

## COC(=O)C1=C(O)C(C(=O)OC)[C@]2(O)[C@@H](C(=O)OC)[C@H]1[C@H](C)[C@@H](c1ccccc1)[C@@H]2C(=O)OC (some centres not stated)
BT-549 breast
  TGI: > 100 µM
786-0 renal
  TGI: > 100 µM
MDA-MB-231 breast
  TGI: > 100 µM
SF-539 CNS
  TGI: > 100 µM
IGROV1 ovarian
  TGI: 93.5 µM
SK-OV-3 ovarian
  TGI: > 100 µM
HOP-62 NSCLC
  TGI: > 100 µM
KM12 colon
  TGI: > 100 µM
ACHN renal
  TGI: > 100 µM
OVCAR-3 ovarian
  TGI: > 100 µM
OVCAR-5 ovarian
  TGI: > 100 µM
MOLT-4 leukemia
  TGI: > 100 µM
NCI-H23 lung
  TGI: > 100 µM
DU-145 prostate
  TGI: > 100 µM
K-562 leukemia
  TGI: > 100 µM
T-47D breast
  TGI: > 100 µM
NCI-H522 lung
  TGI: 47.1 µM
NCI-H460 lung
  TGI: > 100 µM
CCRF-CEM leukemia
  TGI: 70.7 µM
CAKI-1 renal
  TGI: > 100 µM
NCI-H226 lung
  TGI: > 100 µM
HL-60(TB) leukemia
  TGI: 62.3 µM
SW-620 colon
  TGI: > 100 µM
SN12C renal
  TGI: > 100 µM
MDA-MB-435
  TGI: > 100 µM
MALME-3M melanoma
  TGI: > 100 µM
NCI/ADR-RES ovarian
  TGI: > 100 µM
U251 CNS
  TGI: > 100 µM
COLO 205 colon
  TGI: > 100 µM
M14 melanoma
  TGI: > 100 µM
OVCAR-8 ovarian
  TGI: > 100 µM
SK-MEL-5 melanoma
  TGI: > 100 µM
TK-10 renal
  TGI: > 100 µM
HT29 colon
  TGI: > 100 µM
OVCAR-4 ovarian
  TGI: > 100 µM
A549 NSCLC
  TGI: > 100 µM
SF-295 CNS
  TGI: > 100 µM
LOX IMVI melanoma
  TGI: > 100 µM
HCT-116 colon
  TGI: > 100 µM
SNB-19 CNS
  TGI: > 100 µM
SK-MEL-2 melanoma
  TGI: > 100 µM
MDA-N
  TGI: > 100 µM
HCT-15 colon
  TGI: > 100 µM
SF-268 CNS
  TGI: > 100 µM
PC-3 prostate
  TGI: > 100 µM
SK-MEL-28 melanoma
  TGI: > 100 µM
UACC-62 melanoma
  TGI: > 100 µM
RXF 393 renal
  TGI: > 100 µM
UACC-257 melanoma
  TGI: > 100 µM
SNB-75 CNS
  TGI: > 100 µM
EKVX NSCLC
  TGI: > 100 µM

## CC(=O)/C(=C/n1ccc(=O)[nH]c1=S)C(=O)Nc1ccccc1C
BT-549 breast
  TGI: > 100 µM
786-0 renal
  TGI: > 100 µM
MDA-MB-231 breast
  TGI: > 100 µM
SF-539 CNS
  TGI: > 100 µM
IGROV1 ovarian
  TGI: > 100 µM
SK-OV-3 ovarian
  TGI: > 100 µM
HOP-62 NSCLC
  TGI: > 100 µM
HOP-92 NSCLC
  TGI: > 100 µM
KM12 colon
  TGI: > 100 µM
ACHN renal
  TGI: > 100 µM
OVCAR-3 ovarian
  TGI: > 100 µM
OVCAR-5 ovarian
  TGI: > 100 µM
NCI-H23 lung
  TGI: > 100 µM
DU-145 prostate
  TGI: > 100 µM
T-47D breast
  TGI: > 100 µM
NCI-H460 lung
  TGI: > 100 µM
CAKI-1 renal
  TGI: > 100 µM
NCI-H226 lung
  TGI: > 100 µM
HL-60(TB) leukemia
  TGI: > 100 µM
SW-620 colon
  TGI: > 100 µM
SN12C renal
  TGI: > 100 µM
MDA-MB-435
  TGI: > 100 µM
NCI/ADR-RES ovarian
  TGI: > 100 µM
U251 CNS
  TGI: > 100 µM
COLO 205 colon
  TGI: > 100 µM
M14 melanoma
  TGI: > 100 µM
OVCAR-8 ovarian
  TGI: > 100 µM
SK-MEL-5 melanoma
  TGI: > 100 µM
TK-10 renal
  TGI: > 100 µM
HT29 colon
  TGI: > 100 µM
OVCAR-4 ovarian
  TGI: > 100 µM
A549 NSCLC
  TGI: > 100 µM
SF-295 CNS
  TGI: > 100 µM
LOX IMVI melanoma
  TGI: > 100 µM
HCT-116 colon
  TGI: > 100 µM
SNB-19 CNS
  TGI: > 100 µM
SK-MEL-2 melanoma
  TGI: > 100 µM
MDA-N
  TGI: > 100 µM
HCT-15 colon
  TGI: > 100 µM
SF-268 CNS
  TGI: > 100 µM
HCC-2998 colon
  TGI: > 100 µM
SK-MEL-28 melanoma
  TGI: > 100 µM
A498 renal
  TGI: > 100 µM
UACC-62 melanoma
  TGI: > 100 µM
RXF 393 renal
  TGI: > 100 µM
UACC-257 melanoma
  TGI: > 100 µM
MCF7 breast
  TGI: > 100 µM
SNB-75 CNS
  TGI: > 100 µM
UO-31 renal
  TGI: > 100 µM
EKVX NSCLC
  TGI: > 100 µM

## CCOC(=O)CCSS(=O)(=O)c1ccccc1
BT-549 breast
  TGI: > 100 µM
786-0 renal
  TGI: 63.9 µM
SK-OV-3 ovarian
  TGI: > 100 µM
HOP-62 NSCLC
  TGI: > 100 µM
HOP-92 NSCLC
  TGI: > 100 µM
KM12 colon
  TGI: > 100 µM
ACHN renal
  TGI: > 100 µM
OVCAR-3 ovarian
  TGI: > 100 µM
OVCAR-5 ovarian
  TGI: > 100 µM
NCI-H23 lung
  TGI: > 100 µM
DU-145 prostate
  TGI: > 100 µM
T-47D breast
  TGI: > 100 µM
NCI-H460 lung
  TGI: > 100 µM
CCRF-CEM leukemia
  TGI: > 100 µM
RPMI-8226 leukemia
  TGI: 99 µM
CAKI-1 renal
  TGI: > 100 µM
NCI-H226 lung
  TGI: > 100 µM
HL-60(TB) leukemia
  TGI: > 100 µM
SW-620 colon
  TGI: > 100 µM
SN12C renal
  TGI: > 100 µM
MDA-MB-435
  TGI: > 100 µM
NCI/ADR-RES ovarian
  TGI: > 100 µM
U251 CNS
  TGI: > 100 µM
COLO 205 colon
  TGI: > 100 µM
M14 melanoma
  TGI: > 100 µM
OVCAR-8 ovarian
  TGI: > 100 µM
SK-MEL-5 melanoma
  TGI: > 100 µM
TK-10 renal
  TGI: > 100 µM
OVCAR-4 ovarian
  TGI: > 100 µM
A549 NSCLC
  TGI: > 100 µM
SF-295 CNS
  TGI: > 100 µM
LOX IMVI melanoma
  TGI: 77.4 µM
SNB-19 CNS
  TGI: > 100 µM
SK-MEL-2 melanoma
  TGI: > 100 µM
MDA-N
  TGI: > 100 µM
HCT-15 colon
  TGI: > 100 µM
PC-3 prostate
  TGI: > 100 µM
HCC-2998 colon
  TGI: > 100 µM
SK-MEL-28 melanoma
  TGI: > 100 µM
A498 renal
  TGI: > 100 µM
UACC-62 melanoma
  TGI: > 100 µM
RXF 393 renal
  TGI: > 100 µM
UACC-257 melanoma
  TGI: > 100 µM
MCF7 breast
  TGI: > 100 µM
SNB-75 CNS
  TGI: > 100 µM
EKVX NSCLC
  TGI: > 100 µM
